Experimental data reported in US6946447B2, “MDM2-specific antisense oligonucleotides” (Hybridon, Inc., priority 1997, dated 2005).
Like-named read-outs stand apart in the source and are kept apart here.

How the values were obtained:
[1] = test system: human colon cancer DLD-1 xenografts; assay: Tumor growth in nude mice bearing DLD-1 xenografts; type: in vivo
[2] = test system: MDM2, p53 and p21 protein levels in DLD-1 cells; assay: Western blot of MDM2, p53 and p21 in DLD-1 cells; type: cell-based, human; conditions: for inhibitory effect on MDM2 expression: Lipofectin
Description: (§1) Chemicals and Reagents. Cell culture media and phosphate-buffered saline (PBS) were obtained from Sigma Chemical Co. (St. Louis, Mo.). Fetal bovine serum (FBS), antibodies against p53 and p21, Lipofectin, trypsin, penicillin-streptomycin, and trypan blue stain were purchased from GIBCO-BRL (Grand Island, N.Y.). The anti-human-MDM2 monoclonal antibody (Chen L. et al., Proc Natl Acad Sci USA, 95: 195-200, 1998; Chen L. et al., Mol. Med. 5: 21-34, 1999) was kindly provided by J. Chen (Moffitt Cancer Center, Tampa, Fla.). Chemotherapeutic agents adriamycin and 5-fluorouracil (5-FU) were obtained from Sigma. Natural product topoisomerase I inhibitor 10-hydroxycamptothecin (HCPT) was obtained from the Midwest Co. (Beijing, China) with the purity of the drug being greater than 98% (Zhang R. et al., Cancer Chemother Pharm 41: 257-267, 1998). Cell Culture. The tumor cell lines, LS174T and DLD-1 were obtained from the American Type Culture Collection (Rockville, Md.) and cultured according to their instructions. LS 174T cells were cultured in MEM with 0.1 mM nonessential amino acids and Earle's balanced salt solution containing 10% FBS and DLD-1 cells in RPMI 1640 medium containing 10% FBS. All media included 1% penicillin/streptomycin. […] Cells were incubated with Oligos AS or ASM at various concentrations for 72 hr, in the presence of Lipofectin (7 μg/ml). […] Western Blot Analysis. The MDM2, p53 and p21 levels in cultured cells were analyzed by using the methods described previously (earlier (Chen L. et al., Proc Natl Acad Sci USA, 95: 195-200, 1998; Chen L. et al., Mol. Med. 5: 21-34, 1999; Wang H. et al., Int J. Oncol. 15: 653-660, 1999). In brief, cell lysate containing identical amounts of total protein were fractionated by SDS-PAGE and transferred to Bio-Rad Trans-Blot nitrocellulose membranes (Bio-Rad Laboratories, Hercules, Calif., USA). The nitrocellulose membrane was then incubated with blocking buffer (PBS containing 0.1% Tween 20 and 5% non-fat milk) for 1 hr at room temperature and washed with the washing buffer (PBS containing 0. 1% Tween 20) for 5 min twice. The membrane was incubated with primary (anti-MDM2, anti-p53, or anti-p21) antibody overnight at 4° C. or for 1 hr at room temperature with gentle shaking. The membrane was washed with the washing buffer for 15 min and then twice for 5 min, and then incubated with 1:5000 diluted goat anti-mouse IgG-horse radish peroxidase conjugated antibody (Bio-Rad, Hercules, Calif.) for 1 hr at room temperature. After washing as described above the protein of interest was detected by ECL reagents from Amersham (Arlington Height, Ill.). Results. LS174T Model. In vitro inhibition of MDM2 expression by Oligo AS was shown in a sequence-specific, increasing dose-dependent manner (FIG. 19). […] Control oligonucleotide, Oligo ASM had no effect on MDM2, p53 or p21 protein levels at 500 nM, the highest concentration tested in the study.
(§2) Following in vitro combination treatment of Oligos and chemotherapeutic agents HCPT, adriamycin, and 5-FU, the protein levels of MDM2, p53 and p21 were determined in DLD-1 cells. Cells were incubated with 200 nM Oligo in the presence of Lipofectin for 24 hr, followed by addition of various concentrations of chemotherapeutic agents and incubation for an additional 24 hr.

[3] = test system: SJSA xenografts; assay: Tumor growth in nude mice bearing SJSA xenografts; type: in vivo; conditions: SJSA xenografts (average 150 mg), ip, 5 doses/week
Experimental: 51:173-182, 1996). […] The control group received physiological saline only.
Tumor growth was monitored using the methods previously reported (74,75). Tumor weight (g) was calculated by the formula, ½·a·b^2, where “a” is the long diameter (cm) and “b” is the short diameter (cm) of the tumor. At the end of the experiment, tumors were removed, weighed, and then fixed for pathology evaluation.

[4] = mice bearing DLD-1 xenografts
[5] = test system: MDM2, p53 and p21 protein levels in LS174T cells; assay: Western blot of MDM2, p53 and p21 in LS174T cells; type: cell-based, human; conditions: 400 nM Oligo 24 hr
Description: as §1
as §2, with “LS174T” for “DLD-1”, “400” for “200”, “for” for “for an”

[6] = test system: JAR xenografts; assay: Tumor regression and survival of nude mice bearing large JAR xenografts, intratumoral injection; conditions: JAR xenografts (average 2,000 mg)
Experimental: Administration was by direct injection into the tupors at the designated daily dose, 5 doses/week. Anti-MDM2 oligonucleotide: AS5-2H (5 mg/kg/day, 5 injections); anti-MDM2 oligonucleotide (5 mg/kg)+HCPT (3 mg/kg); control (saline); HCPT: 3 mg/kg/day.
The tumor cell lines, SJSA and JAR, were cultured under the same conditions as in in vitro studies (Chen et al., PNAS 1998, supra). Human cancer xenograft models were established using the methods reported previously (Cai et al., Intl. J. Oncol. 10:953-960, 1997; and Zhang et al., Intl. J. Oncol. 10:1147-1156, 1997). Female nude mice (five week old) were used in the study. Cultured SJSA and JAR cells were harvested from the monolayer cultures, washed twice with DMEMF-12 HAM medium, resuspended in DMEM, and injected s.c. (20×10^6 cells, total volume 0.2 ml) into the left inguinal area of the mice. The animals were monitored by general clinical observation, body weight, and tumor growth. […] Animals with JAR cells were treated when the tumor size reached 2,000 mg. The animals bearing human cancer carcinoma xenografts were randomly divided into treatment groups and a control group (6-10 mice/group). Oligonucleotides dissolved in physiological saline (0.9% NaCl) were administered by ip injection at various daily doses, 5 consecutive days per week. The control group received physiological saline only. […]

[7] = test system: human colon cancer LS174T xenografts; assay: Tumor growth in nude mice bearing LS174T xenografts
[8] = test system: MDM2; conditions: SJSA and JAR cells; cited from earlier work
[9] = day 3, oligo 20, HCPT 3, 5-FU 10 mg/kg/day
[10] = day 6, oligo 20, HCPT 3, 5-FU 10 mg/kg/day
[11] = day 9, oligo 20, HCPT 3, 5-FU 10 mg/kg/day
[12] = day 12, oligo 20, HCPT 3, 5-FU 10 mg/kg/day
[13] = day 15, oligo 20, HCPT 3, 5-FU 10 mg/kg/day

## Oligo AS: 20-mer mixed-backbone phosphorothioate oligonucleotide with 2′-O-methyl ends, 5′UGACACCTGTTCTCACUCAC-3′; SEQ ID NO:47 (mixed phosphorothioate backbone with 2'-O-methyl ends, pattern not given here)
[1]
  xenograft pathology (tumor histology): histologically similar to control tumors except for modest increases in connective tissue with necrotic changes in tumor tissues
[1]; 1 mg/kg/day
  effect on in vivo tumor growth: minimal effects
[1]; daily ip doses 1, 10, 20 mg/kg
  effect on in vivo tumor growth: dose-dependent response
[1]; day 3
  Ratio (%) of % T:C with oligo to % T:C without oligo ([2]/[1] or [3]/[1]): 77%
[1]; [9]
  Growth ratio % T:C: 77.3%
[1]; day 6
  Ratio (%) of % T:C with oligo to % T:C without oligo ([2]/[1] or [3]/[1]): 72%
[1]; [10]
  Growth ratio % T:C: 72.0%
[1]; day 9
  Ratio (%) of % T:C with oligo to % T:C without oligo ([2]/[1] or [3]/[1]): 59%
[1]; [11]
  Growth ratio % T:C: 59.2%
[1]; day 12
  Ratio (%) of % T:C with oligo to % T:C without oligo ([2]/[1] or [3]/[1]): 41%
[1]; [12]
  Growth ratio % T:C: 41.2%
[1]; day 15
  Ratio (%) of % T:C with oligo to % T:C without oligo ([2]/[1] or [3]/[1]): 44%
[1]; [13]
  Growth ratio % T:C: 44.4%
[1]; day 18
  Ratio (%) of % T:C with oligo to % T:C without oligo ([2]/[1] or [3]/[1]): 47%
[1]; day 18, oligo 20, HCPT 3, 5-FU 10 mg/kg/day
  Growth ratio % T:C: 46.7%
[1]; day 21
  Ratio (%) of % T:C with oligo to % T:C without oligo ([2]/[1] or [3]/[1]): 37%
[1]; day 21 (end of experiment), oligo 20, HCPT 3, 5-FU 10 mg/kg/day
  Growth ratio % T:C: 36.8%
[2]
  protein levels of the mutant p53: No significant changes
[2]; 200 nM Oligo 24 hr, then 5-FU 24 hr
  MDM2, p53 and p21 protein levels, oligo pre-treatment then 5-FU: MDM2 expression was inhibited, and p21 slightly induced
[2]; 200 nM Oligo 24 hr, then HCPT 24 hr
  MDM2 and p21 protein levels, oligo pre-treatment then HCPT: MDM2 expression was inhibited, resulting in significant elevated p21 levels
[2]; 200 nM Oligo 24 hr, then adriamycin 24 hr
  MDM2 and p21 protein levels, oligo pre-treatment then adriamycin: MDM2 expression was inhibited, resulting in significant elevated p21 levels
[2]; 200 nM, 24 hr
  inhibitory effect on MDM2 expression: > 95%
[2]; 100 nm or higher
  p21 levels: elevated
[2]; 500 and 1000 nM
  inhibitory effect on MDM2 expression: approximately 80%
[3]
  effect on tumor growth: dose-dependent effect
[4]; day 3
  Survival Rates of Animals: 100%
[4]; day 6
  Survival Rates of Animals: 100%
[4]; day 9
  Survival Rates of Animals: 100%
[4]; day 12
  Survival Rates of Animals: 100%
[4]; day 15
  Survival Rates of Animals: 100%
[4]; day 18
  Survival Rates of Animals: 100%
[4]; day 21
  Survival Rates of Animals: 100%
[5]; then 5-FU 24 hr
  MDM2, p53 and p21 protein levels, oligo pre-treatment then 5-FU: MDM2 expression was inhibited, resulting in significant elevated p53 and p21 levels
[5]; then HCPT 24 hr
  MDM2, p53 and p21 protein levels, oligo pre-treatment then HCPT: MDM2 expression was inhibited, resulting in significant elevated p53 and p21 levels
[5]; then adriamycin 24 hr
  MDM2, p53 and p21 protein levels, oligo pre-treatment then adriamycin: MDM2 expression was inhibited, resulting in significant elevated p53 and p21 levels
[6]; direct injection
  tumor regression: tumor regression
[6]; direct injection into tumors, 5 mg/kg/day
  animals surviving up to 4 weeks: 20%
[7]
  xenograft pathology (tumor histology): patches of collagenous connective tissues replacing tumor and necropurulent, ulcerative changes
[7]; daily ip dose 20 mg/kg
  effect on in vivo tumor growth: significant inhibitory effect
[7]; day 3
  Ratio (%) of % T:C with oligo to % T:C without oligo ([2]/[1] or [3]/[1]): 51%
[7]; [9]
  Growth ratio % T:C (mean tumor mass of treated group vs saline control): 50.9%
[7]; day 6
  Ratio (%) of % T:C with oligo to % T:C without oligo ([2]/[1] or [3]/[1]): 44%
[7]; [10]
  Growth ratio % T:C (mean tumor mass of treated group vs saline control): 44.1%
[7]; day 9
  Ratio (%) of % T:C with oligo to % T:C without oligo ([2]/[1] or [3]/[1]): 30%
[7]; [11]
  Growth ratio % T:C (mean tumor mass of treated group vs saline control): 29.9%
[7]; day 12
  Ratio (%) of % T:C with oligo to % T:C without oligo ([2]/[1] or [3]/[1]): 34%
[7]; [12]
  Growth ratio % T:C (mean tumor mass of treated group vs saline control): 34.3%
[7]; day 15
  Ratio (%) of % T:C with oligo to % T:C without oligo ([2]/[1] or [3]/[1]): 45%
[7]; [13]
  Growth ratio % T:C (mean tumor mass of treated group vs saline control): 45.2%
[7]; day 18
  Ratio (%) of % T:C with oligo to % T:C without oligo ([2]/[1] or [3]/[1]): 37%
[7]; day 18 (end of experiment), oligo 20, HCPT 3, 5-FU 10 mg/kg/day
  Growth ratio % T:C (mean tumor mass of treated group vs saline control): 37.3%
[8]
  MDM2 expression: specifically inhibits MDM2 expression
